Entries after “also recorded” stand apart in the source; their conditions may differ. Like-named read-outs stand apart in the source and are kept apart here.
Assays:
zebrafish larvae = assay: Melanogenesis (depigmentation) assay using zebrafish embryos; format: in vivo; conditions: for depigmentation of zebrafish larvae at 0.1 mM / depigmentation of zebrafish larvae at 0.03 mM: compared with kojic acid 20 mM; for pigmentation area of zebrafish larvae (CS analyzer, dorsal and lateral views): derivatives 0.03 and 0.1 mM, kojic acid 20 mM
Experimental: To assess depigmentation in vivo, wild-type zebrafish (Danio rerio) embryos were acquired free of charge from the Zebrafish Center for Disease Modeling (ZCDM) located at Chungnam National University in Daejeon, Republic of Korea. The zebrafish were raised in tanks maintained at 28 °C in the ZCDM. The tanks were oxygenated, and the tank lights were turned off for 10 h and on for 14 h. The zebrafish embryos used for in vivo depigmentation experiments were obtained through natural mating. The E3 solution for zebrafish embryos was prepared by dissolving 19.9 mg magnesium sulfate, 6.4 mg potassium chloride, 18.3 mg calcium chloride, and 146.1 mg sodium chloride in 500 mL distilled water. E3-MB (methylene blue) solution was prepared by adding MB to the E3 solution to create a 0.001% MB solution. The acquired zebrafish embryos were transferred to a culture dish containing the E3-MB solution. The culture dish was incubated at 28 °C until zebrafish embryos were used. Since zebrafish embryos are sensitive and can be easily killed by the chorion removal process 20 h post-fertilization (20 hpf), the chorion was removed at 24 hpf through treatment with pronase (Sigma-Aldrich, St. Louis, MO, USA). Five dechorionated zebrafish embryos were transferred to each well of 48-well microplates containing 250 μL E3 solution. […] Zebrafish larvae were anesthetized with tricaine at 76 hpf and placed on a 1% methylcellulose block to determine the degree of zebrafish larva depigmentation. Dorsal and lateral images of the zebrafish larvae were acquired using an SMZ745T microscope (Nikon, Tokyo, Japan). The pigmented areas of the dorsal and lateral images were obtained using CS analyzer 3.0 image analysis software (ATTO, Tokyo, Japan). Each assay (n = 7) was independently performed two times.

mushroom TYR [1] = target: T1, mushroom TYR (Agaricus bisporus, UniProt C7FF04); assay: Kinetic studies on mushroom TYR (Lineweaver–Burk and Dixon plots); format: biochemical; conditions: L-dopa as substrate
T1 sequence (C7FF04 2-392): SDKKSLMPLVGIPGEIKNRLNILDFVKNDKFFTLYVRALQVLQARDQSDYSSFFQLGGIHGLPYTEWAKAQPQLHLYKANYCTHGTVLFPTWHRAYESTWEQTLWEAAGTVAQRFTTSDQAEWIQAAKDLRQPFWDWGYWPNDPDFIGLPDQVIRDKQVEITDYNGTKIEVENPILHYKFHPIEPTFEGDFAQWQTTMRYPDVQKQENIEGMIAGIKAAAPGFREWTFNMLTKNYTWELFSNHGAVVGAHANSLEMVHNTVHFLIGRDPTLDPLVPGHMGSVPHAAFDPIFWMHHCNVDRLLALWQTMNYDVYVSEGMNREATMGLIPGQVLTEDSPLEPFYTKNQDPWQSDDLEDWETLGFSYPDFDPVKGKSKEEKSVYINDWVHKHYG
Experimental: Kinetic experiments were performed to obtain Lineweaver–Burk plots for the analysis of mushroom TYR kinetics. Mushroom TYR solution (20 μL, 150 units/mL) was added to each well of a 96-well microplate containing 2-MMBI derivatives (10 μL; 0, 7.5, 15, and 30 μM for 1; 0, 5, 10, and 20 μM for 3 and 8; and 0, 12.5, 25, and 50 μM for 9) and a substrate solution (170 μL) composed of sodium phosphate buffer (17.2 mM; pH 6.5) and L-dopa (various concentrations: 0.5, 1, 2, 4, 8, and 16 mM). […] Lineweaver–Burk plots for each 2-MMBI derivative were obtained by plotting the value of 1/[substrate] against the value of (min/ΔOD475). Lineweaver–Burk plots were transformed into corresponding Dixon plots by plotting the value of (min/ΔOD475) against the value of the 2-MMBI derivative concentration.

mushroom TYR [2] = target: T1, mushroom TYR; assay: Mushroom TYR activity assay with and without CuSO4; format: biochemical; conditions: 20 μM derivative, L-tyrosine
Experimental: To determine whether copper(II) ions influence the TYR-inhibitory activity of 2-MMBI derivatives, the effects of these derivatives on mushroom TYR activity were measured with and without CuSO4. Briefly, mushroom TYR aqueous solution (20 μL, 1 unit/μL) was mixed with 2-MMBI derivatives (1, 3, and 8–10) (10 μL, final concentration: 20 μM) and with the substrate solution (170 μL), comprising 17.2 mM phosphate buffer (pH 6.5) and 345 μM L-tyrosine, in the presence or absence of CuSO4 (50 μL, final concentration: 50 μM) in each well of a 96-well plate. […] Each assay was carried out independently in triplicate.

B16F10 cells = assay: Melanin content measurement assay in B16F10 cells; format: cell-based, murine; conditions: α-MSH 1 μM plus IBMX 200 μM, 72 h; for effect on B16F10 cellular melanin production at three concentrations: 2, 5, and 10 μM
Experimental: A 6-well plate containing 5 × 10^3 B16F10 cells per well was incubated at 37 °C and 5% CO2 for 1 day. […] After 1 h, 1 μM α-MSH and 200 μM IBMX were added to each well, and the plate was subsequently incubated at 37 °C and 5% CO2 for 72 h. The cells were exposed to […] 1N-NaOH solution and cultured at 60 °C for 1 h after washing with PBS. The lysates were transferred to each well of a 96-well plate, and the optical density at 405 nm was recorded using a VersaMax™ reader. […] Each assay was independently performed three times.

[3] = Reactive oxygen species removal activity assay (SIN-1, DCFH); conditions: test samples 40 μM; SIN-1 10 μM
Experimental: To assess reactive oxygen species (ROS) removal activity, a DCFH solution was prepared by mixing 50 μL DCFH-DA (1.25 mM), 50 μL esterase (0.6 unit/μL), and 4.9 mL phosphate buffer (50 mM) and maintained in the dark for 30 min. The SIN-1 solution (10 μL) was added to each well of a 96-black well that contained the test sample (10 μL; 2-MMBI derivatives 1–10 and Trolox [positive material]) and phosphate buffer (180 μL). 2-MMBI derivatives, Trolox, and SIN-1 were exposed at final concentrations of 40, 40, and 10 μM, respectively. The prepared DCFH solution (50 μL) was added to each well after 10 min. The fluorescence intensity of 2′,7′-dichlorofluorescein in the wells was measured at 535 nm using a microplate reader (Berthold Advances GmbH & Co., Bad Wildbad, Germany) with an excitation wavelength of 485 nm. Each experiment was conducted independently four times.

B16F10 cellular TYR = target: T2, B16F10 cellular TYR (Mus musculus, UniProt P11344); assay: TYR activity assay in B16F10 cells; format: cell-based, murine; conditions: 2, 5, and 10 μM; α-MSH 1 μM plus IBMX 200 μM; 72 h
T2 construct: The in situ cellular TYR activities of the 2-MMBI derivatives were investigated using B16F10 cells; endogenous in cells; host or cells: B16F10 murine melanoma cells stimulated with alpha-MSH and IBMX
T2 sequence (P11344 19-533): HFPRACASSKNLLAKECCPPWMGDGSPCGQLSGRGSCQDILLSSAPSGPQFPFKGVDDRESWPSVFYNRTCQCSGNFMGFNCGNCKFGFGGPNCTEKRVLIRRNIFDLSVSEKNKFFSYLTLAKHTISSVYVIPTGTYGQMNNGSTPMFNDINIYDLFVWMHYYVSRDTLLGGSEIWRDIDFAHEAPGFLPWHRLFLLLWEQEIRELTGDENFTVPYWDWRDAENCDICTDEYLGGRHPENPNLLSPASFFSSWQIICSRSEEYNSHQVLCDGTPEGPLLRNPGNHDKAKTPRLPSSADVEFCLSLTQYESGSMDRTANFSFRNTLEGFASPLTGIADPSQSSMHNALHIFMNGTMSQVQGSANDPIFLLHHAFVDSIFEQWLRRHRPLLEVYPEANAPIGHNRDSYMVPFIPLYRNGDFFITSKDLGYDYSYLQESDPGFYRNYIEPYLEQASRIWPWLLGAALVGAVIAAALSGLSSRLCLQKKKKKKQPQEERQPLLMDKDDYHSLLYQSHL
Experimental: A 6-well plate containing 5 × 10^3 B16F10 cells per well was incubated (37 °C and 5% CO2) for 1 day. […] Stimulators (1 μM α-MSH and 200 μM IBMX) were added after 1 h, and the plate was incubated (37 °C and 5% CO2) for 72 h. After washing with PBS, 100 μL lysis buffer consisting of 1% Triton X-100, 1 mM phenylmethylsulfonyl fluoride, and 50 mM sodium phosphate buffer (pH 6.5) in a volume ratio of 1:1:18 was added to each well. Following an incubation period of 30 min at −80 °C, the cell lysates were centrifuged at 12,000× g for 10 min at 4 °C to obtain the supernatants. […] Each assay was independently performed three times.

B16F10 cell TYR = target: T3, B16F10 cell TYR (Mus musculus, UniProt P11344); assay: In situ B16F10 cellular TYR activity assay (L-dopa staining); format: cell-based, murine; conditions: α-MSH plus IBMX 72 h; for in situ B16F10 cell TYR activity (cell staining), concentration series: 2, 5, and 10 μM
T3 construct: The in situ cellular TYR activities of the 2-MMBI derivatives were investigated using B16F10 cells; endogenous in cells; host or cells: B16F10 murine melanoma cells stimulated with alpha-MSH and IBMX
T3 sequence (P11344 19-533): T2 sequence (P11344 19-533)
Experimental: B16F10 cells (2 × 10^3/well) were inoculated in each well of a 24-well microplate and cultured for 1 day in an incubator (37 °C and 5% CO2). […] Subsequently, stimulators (α-MSH [1 μM] and IBMX [200 μM]) were added to each well. […] Stained photographs were captured using a camera attached to a microscope (Motic, Hong Kong, China). Each assay was independently performed two times.

[4] = CuSO4 50 μM added externally, read-out: inhibition of mushroom TYR activity with CuSO4
[5] = no CuSO4 added externally, read-out: inhibition of mushroom TYR activity without CuSO4
[6] = 0.03 and 0.1 mM, 48 h exposure from 28 hpf

With `SCc1nc2ccccc2[nH]1` [Derivative 1, (1H-Benzo[d]imidazol-2-yl)methanethiol] the “depigmentation of zebrafish larvae at 0.1 mM” value (zebrafish larvae; 0.1 mM, 48 h) was “much more potent inhibition of melanin production in zebrafish larvae than kojic acid”, the “pigmentation area of zebrafish larvae (CS analyzer, dorsal and lateral views)” value (zebrafish larvae) was “reduced the pigmentation area more strongly than kojic acid in a concentration-dependent manner” and the inhibition mechanism (mushroom TYR [1]) was “competitive TYR inhibitors”. The inhibition at 20 µM (mushroom TYR [2]; [4]) was 76%, the inhibition at 20 µM (mushroom TYR [2]; [5]) was 86 to 89% and the “effect on B16F10 cellular melanin production at 10 μM” value (“effect … at 10 μM” for short) (B16F10 cells) was “relatively low melanin inhibitory effect”.

For `SCc1nc2cc(Cl)ccc2[nH]1` [Derivative 2, (5-Chloro-1H-benzo[d]imidazol-2-yl)methanethiol], the “depigmentation of zebrafish larvae at 0.03 mM” value (zebrafish larvae; 48 h) was “much stronger depigmentation efficacy than kojic acid”, the “zebrafish larvae death at 0.1 mM” value (zebrafish larvae; 0.1 mM, 48 h exposure from 28 hpf) was “died” and the ROS scavenging activity [3] was “stronger ROS scavenging efficacy than the other derivatives”.

With `COc1ccc2[nH]c(CS)nc2c1` [Derivative 3, (5-Methoxy-1H-benzo[d]imidazol-2-yl)methanethiol] the “depigmentation of zebrafish larvae at 0.03 mM” value (zebrafish larvae; 48 h) was “much stronger depigmentation efficacy than kojic acid”, the “depigmentation of zebrafish larvae at 0.1 mM” value (zebrafish larvae; 0.1 mM, 48 h) was “much more potent inhibition of melanin production in zebrafish larvae than kojic acid” and the “pigmentation area of zebrafish larvae (CS analyzer, dorsal and lateral views)” value (zebrafish larvae) was “reduced the pigmentation area more strongly than kojic acid in a concentration-dependent manner”. For the same compound, the “effect on B16F10 cellular TYR activity” value (B16F10 cellular TYR) was “significantly reduced stimulator-enhanced cellular TYR activity in a dose-dependent manner”, the inhibition mechanism (mushroom TYR [1]) was “competitive TYR inhibitors” and the inhibition at 20 µM (mushroom TYR [2]; [4]) was 34%. For the same compound, the inhibition at 20 µM (mushroom TYR [2]; [5]) was 86 to 89%, the “effect … at 10 μM” value (B16F10 cells) was “inhibited melanin production more strongly than kojic acid” and the “effect on B16F10 cellular melanin production at three concentrations” value (“effect … at three concentrations” for short) (B16F10 cells) was “significantly decreased the melanin levels increased by the stimulators in a concentration-dependent manner”.

In the case of `Fc1ccc2[nH]c(CS)nc2c1` [Derivative 4, (5-Fluoro-1H-benzo[d]imidazol-2-yl)methanethiol], the zebrafish larvae death (zebrafish larvae; [6]) is reported as “all zebrafish larvae died at the tested concentrations”.

For `N#Cc1ccc2[nH]c(CS)nc2c1` [Derivative 5, 2-(Mercaptomethyl)-1H-benzo[d]imidazole-5-carbonitrile], the “depigmentation of zebrafish larvae at 0.03 and 0.1 mM” value (zebrafish larvae; 0.03 and 0.1 mM, 48 h) was “did not exhibit significant depigmentation”.

In the case of `FC(F)(F)c1ccc2[nH]c(CS)nc2c1` [Derivative 7, (5-(Trifluoromethyl)-1H-benzo[d]imidazol-2-yl)methanethiol], the zebrafish larvae death (zebrafish larvae; [6]) is reported as “all zebrafish larvae died at the tested concentrations”, the “in situ B16F10 cell TYR activity (cell staining) at 10 μM” value (B16F10 cell TYR) is reported as “inhibited in situ B16F10 cell TYR activity much more potently than kojic acid” and the “in situ B16F10 cell TYR activity (cell staining), concentration series” value (B16F10 cell TYR) is reported as “reduced the increase in cell staining induced by α-MSH and IBMX in a concentration-dependent manner”. The “effect on B16F10 cellular TYR activity” value (B16F10 cellular TYR) was “significantly reduced stimulator-enhanced cellular TYR activity in a dose-dependent manner”, the ROS scavenging activity [3] was “stronger ROS scavenging efficacy than the other derivatives” and the “effect … at 10 μM” value (B16F10 cells) was “inhibited melanin production more strongly than kojic acid; also recorded: strongest melanin inhibitory effect”. For the same compound, the “effect … at three concentrations” value (B16F10 cells) was “significantly decreased the melanin levels increased by the stimulators in a concentration-dependent manner; also recorded: potently reduced the stimulator-induced increase in melanin content to the levels observed in the control group”.

With `Cc1cccc2[nH]c(CS)nc12` [Derivative 9, (4-Methyl-1H-benzo[d]imidazol-2-yl)methanethiol] the inhibition mechanism (mushroom TYR [1]) was “mixed TYR inhibitors”, the inhibition at 20 µM (mushroom TYR [2]; [4]) was 54% and the inhibition at 20 µM (mushroom TYR [2]; [5]) was 86 to 89%.

With `Cc1cc2nc(CS)[nH]c2cc1C` [Derivative 10, (5,6-Dimethyl-1H-benzo[d]imidazol-2-yl)methanethiol] the “in situ B16F10 cell TYR activity (cell staining) at 10 μM” value (B16F10 cell TYR) was “inhibited in situ B16F10 cell TYR activity much more potently than kojic acid”, the “in situ B16F10 cell TYR activity (cell staining), concentration series” value (B16F10 cell TYR) was “reduced the increase in cell staining induced by α-MSH and IBMX in a concentration-dependent manner” and the “effect on B16F10 cellular TYR activity” value (B16F10 cellular TYR) was “significantly reduced stimulator-enhanced cellular TYR activity in a dose-dependent manner”. The inhibition at 20 µM (mushroom TYR [2]; [4]) was 1%, the inhibition at 20 µM (mushroom TYR [2]; [5]) was 60% and the “effect … at 10 μM” value (B16F10 cells) was “inhibited melanin production more strongly than kojic acid”. For the same compound, the “effect … at three concentrations” value (B16F10 cells) was “significantly decreased the melanin levels increased by the stimulators in a concentration-dependent manner”.

Source: publication PMC11505594, “Design, Synthesis, and Anti-Melanogenic Activity of 2-Mercaptomethylbenzo[d]imidazole Derivatives Serving as Tyrosinase Inhibitors: An In Silico, In Vitro, and In Vivo Exploration” (Antioxidants, 2024)
